# Laboratory results: patent US20020137152A1, “Fermentation process for epothilones” (priority 2000, published 2002)
# Legend:
# [1] = system: breast and colon tumor cell lines; conditions: Hofle et al., 1996; cited from earlier work
# eukaryotic cells = conditions: cited from earlier work; for cytotoxic activity against eukaryotic cells: Hofle et al., 1996; for cytotoxicity relative to epothilones A and B: desoxy counterparts compared with epothilones A and B
# EpoK = biological target: T1, EpoK (Sorangium cellulosum, UniProt Q9KIZ4); experiment: EpoK assay: conversion of epothilone D to epothilone B by recombinant his-tagged EpoK, LC/MS; assay type: biochemical; conditions: 30° C., 67 minutes
# T1 construct: His6 (six histidine residues); made in house; host or cells: E. coli BL21(DE3) with pREP4-groELS; plasmids pKOS55-121 (N-terminal his) and pKOS55-129 (C-terminal his) in pET22b
# T1 sequence (Q9KIZ4 1-419): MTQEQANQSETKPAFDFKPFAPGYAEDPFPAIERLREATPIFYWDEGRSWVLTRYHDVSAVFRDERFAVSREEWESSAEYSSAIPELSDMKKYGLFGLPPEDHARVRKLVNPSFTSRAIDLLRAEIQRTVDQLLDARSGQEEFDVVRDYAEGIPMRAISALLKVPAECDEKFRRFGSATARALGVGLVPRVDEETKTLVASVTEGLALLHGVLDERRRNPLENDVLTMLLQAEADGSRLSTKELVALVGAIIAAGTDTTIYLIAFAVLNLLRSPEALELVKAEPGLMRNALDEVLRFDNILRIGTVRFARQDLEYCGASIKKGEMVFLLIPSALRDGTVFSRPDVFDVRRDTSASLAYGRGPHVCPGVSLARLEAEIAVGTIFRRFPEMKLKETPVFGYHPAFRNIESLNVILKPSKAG
# Excerpt: This Example describes the construction of E. coli expression vectors for heterologous expression of the Sorangium cellulosum epoK gene. The E. coli produced EpoK enzyme can be used in assays to identify inhibitors for use in the methods of the invention. The epoK gene product was expressed in E. coli as a fusion protein with a polyhistidine tag (his tag). The fusion protein was purified and used to convert epothilone D to epothilone B. This assay can be readily adapted to identify EpoK inhibitors.
# Purification of EpoK was performed as follows. Plasmids pKOS55-121 and pKOS55-129 were transformed into BL21(DE3) containing the groELS expressing plasmid pREP4-groELS (Caspers et al., 1994, Cellular and Molecular Biology 40(5):635-644). The strains were inoculated into 250 mL of M9 medium supplemented with 2 mM MgSO4, 1% glucose, 20 mg thiamine, 5 mg FeCl2, 4 mg CaCl2 and 50 mg levulinic acid. The cultures were grown to an OD600 between 0.4 and 0.6, at which point IPTG was added to 1 mM, and the cultures were allowed to grow for an additional two hours. The cells were harvested and frozen at −80° C. The frozen cells were resuspended in 10 ml of buffer 1 (5 mM imidizole, 500 mM NaCl, and 45 mM Tris pH 7.6) and were lysed by sonicating three times for 15 seconds each on setting 8. The cellular debris was pelleted by centrifugation in an SS-34 rotor at 16,000 rpm for 30 minutes. The supernatant was removed and centrifuged again at 16,000 rpm for 30 minutes. The supernatant was loaded onto a 5 mL nickel column (Novagen), after which the column was washed with 50 mL of buffer 1 (Novagen). EpoK was eluted with a gradient from 5 mM to 1M imidizole. Fractions containing EpoK were pooled and dialyzed twice against 1 L of dialysis buffer (45 mM Tris pH7.6, 0.2 mM DTT, 0.1 mM EDTA, and 20% glycerol). Aliquots were frozen in liquid nitrogen and stored at −80° C. The protein preparations were greater than 90% pure.
# The EpoK assay was performed as follows. Briefly, reactions consisted of 50 mM Tris (pH7.5), 21 µM spinach ferredoxin, 0.132 units of spinach ferredoxin: NADP^+oxidoreductase, 0.8 units of glucose-6-phosphate dehydrogenase, 1.4 mM NADP, and 7.1 mM glucose-6-phosphate, 100 μM or 200 ,μM epothilone D (a generous gift of S. Danishefsky), and 1.7 ,μM amino terminal his tagged EpoK or 1.6 μM carboxy terminal his-tagged EpoK in a 100 μL volume. The reactions were incubated at 30° C. for 67 minutes and stopped by heating at 90° C. for 2 minutes. The insoluble material was removed by centrifugation, and 50 μL of the supernatant were analyzed by LC/MS. […] In the presence of 200 μM, conversion was 44% and 21%, respectively.
# [2] = Harris et al., 1999; cited from earlier work
# [3] = Chou et al., 1998; cited from earlier work
# [4] = system: Sorangium cellulosum strain So ce 90; experiment: Production of epothilones A, B, C and D by So ce 90 fermented in the presence of a P450 inhibitor, HPLC quantitation; assay type: cell-based; conditions: 10 mM metyrapone in production medium, 7 days
# Experimental: (§1) To prepare a seed culture, transfer cells from the DSM 6773 ampoule into a 250 mL baffled Erleneyer flask with 38 mm silicone foam closures containing 50 mL of sterile soybean meal. Soybean meal contains potato starch (Product No. S-2004, Sigma), 8 g/L; defatted soybean meal (Type 4890, Archer Daniels Midland), 2 g/L; yeast extract (Product No. BP 1422-500, Fisher Biotech), 2g/L; Iron (III) sodium salt EDTA (Product No. EDFS, Sigma), 0.008 g/L; MgSO4.7H20 (Product No. M-5921, Sigma), 1 g/L; CaCl2.2H20 (Product No. C-3991, Sigma), 1 g/L; glucose (Product No. G-5400, Sigma), 2g/L; HEPES buffer (Product No. H-3375, Sigma), 11.5 g/L. Use deionized water, and adjust pH to 7.4 with 10% KOH. Sterilize the flasks by autoclaving at 121° C. for at least 30 minutes. After autoclaving, add 2-3 drops of antifoam B to prevent foaming. Incubate the culture at 32° C. in a 250 RPM shaker for 4 days. After 4 days, the culture should appear an orange color. Production cultures were prepared by sterilizing 50 mL of sterile soybean meal medium and 1 g of Amberlite XAD-16 absorption resin in a 250 mL baffled Erlenmeyer flask. Metyrapone (Product No. 856525, Sigma) is prepared by reconstituting to a final concentration of 2.5 M with 50:50 (v/v) DMSO:H2O. Metyrapone was added to a final concentration of 5 mM and 10 mM in each flask. 5 mL of the seed culture was inoculated to each flask and incubated at 30° C. in a shaker at 250 RPM for 7 days.
# To extract epothilone C and/or D, transfer the culture into a 50 mL centrifuge tube (Product no. 21008-178, VWR Scientific Products). Decant the excess medium in the centrifuge tube without pouring off any of the resin. Wash the XAD-16 resin with 25 mL of H2O and allow the XAD-16 resin to settle by gravity in the tube. Carefully decant the H2O, and add 20 mL of 100% methanol to the tube. Place the centrifuge tube on a shaker at 175 RPM for 20-30 minutes to extract the epothilone products from the resin. Allow the XAD-16 pellets to settle, and transfer 2 mL using a pipette to a HPLC tube (Product nos. C4010-13, C4010-60A, National Scientific Company). Quantitation of epothilones C and D was performed by HPLC analysis with UV-DAD detection at 250 nm. 50 uL of the methanol extract was injected across a 4.6×10 mm guard column (Inertsil, C18 OD 53, 5um) and a 4.6 x 150 mm […] (Inertisil, C18 OD 53, 5 um). The assay method was isocratic, eluting with 60% acetonitrile and 40% water for 18 minutes at a flow rate of 1 ml/min. Under these conditions, epothilone C was detected at 10.3 minutes and epothilone D was detected at 13.0 minutes. The results showing the highest production of epothilones C and D, and the lowest production of epothilones A and B, in the presence of metyrapone and various other inhibitors is shown in FIG. 1. […]
# [5] = system: Sorangium cellulosum strain So ce 90; experiment: Effect of metyrapone on growth of So ce 90 (FIG. 2); assay type: cell-based; conditions: metyrapone at 5 mM and 10 mM
# Experimental: as §1, with “Production cultures were prepared by sterilizing 50 mL of sterile soybean meal medium and 1 g of Amberlite XAD-16 absorption resin in a 250 mL baffled Erlenmeyer flask. Metyrapone (Product No. 856525, Sigma) is prepared by reconstituting to a final concentration of 2.5 M with 50:50 (v/v) DMSO:H2O. Metyrapone was added to a final concentration of 5 mM and 10 mM in each flask. 5 mL of the seed culture was inoculated to each flask and incubated at 30° C. in a shaker at 250 RPM for 7 days.” left out
# To extract epothilone C and/or D, transfer the culture into a 50 mL centrifuge tube (Product no. 21008-178, VWR Scientific Products). […] Quantitation of epothilones C and D was performed by HPLC analysis with UV-DAD detection at 250 nm. […] Under these conditions, epothilone C was detected at 10.3 minutes and epothilone D was detected at 13.0 minutes. […]
smiles,measurement,setting,value
C/C(=C\c1csc(C)n1)[C@@H]1C[C@@H]2O[C@@H]2CCC[C@H](C)[C@H](O)[C@@H](C)C(=O)C(C)(C)[C@@H](O)CC(=O)O1 [epothilone A],activity against breast and colon tumor cell lines,[1],noticeable activity and selectivity
same,cytotoxic activity against eukaryotic cells,eukaryotic cells,broad cytotoxic activity
C/C(=C\c1csc(C)n1)[C@@H]1C[C@@H]2O[C@]2(C)CCC[C@H](C)[C@H](O)[C@@H](C)C(=O)C(C)(C)[C@@H](O)CC(=O)O1 [epothilone B],activity against breast and colon tumor cell lines,[1],noticeable activity and selectivity
same,cytotoxic activity against eukaryotic cells,eukaryotic cells,broad cytotoxic activity
C/C(=C\c1csc(C)n1)[C@@H]1C/C=C\CCC[C@H](C)[C@H](O)[C@@H](C)C(=O)C(C)(C)[C@@H](O)CC(=O)O1 [epothilone C],cytotoxicity relative to epothilones A and B,eukaryotic cells,less cytotoxic
C/C1=C/C[C@@H](/C(C)=C/c2csc(C)n2)OC(=O)C[C@H](O)C(C)(C)C(=O)[C@H](C)[C@@H](O)[C@@H](C)CCC1 [epothilone D],conversion of epothilone D to epothilone B,"EpoK; 100 μM epothilone D, 1.6 μM carboxy terminal his-tagged EpoK",58%
same,conversion of epothilone D to epothilone B,"EpoK; 100 μM epothilone D, 1.7 μM amino terminal his tagged EpoK",82%
same,conversion of epothilone D to epothilone B,"EpoK; 200 μM epothilone D, 1.6 μM carboxy terminal his-tagged EpoK",21%
same,conversion of epothilone D to epothilone B,"EpoK; 200 μM epothilone D, 1.7 μM amino terminal his tagged EpoK",44%
same,efficacy among naturally occurring epothilones studied,[2],greatest efficacy
same,cytotoxicity relative to epothilones A and B,eukaryotic cells,less cytotoxic
same,toxicity among naturally occurring epothilones studied,[3],lowest toxicity
"CC(C)(C(=O)c1cccnc1)c1cccnc1 [metyrapone, 2-methyl-1,2-di-3-pyridyl-1-propanone]",epothilone D produced by So ce 90,[4]; without inhibitor 0.5 mg/L,0.1 mg/L
same,epothilone C produced by So ce 90,[4]; without inhibitor 1.0 mg/L,0.5 mg/L
same,epothilone B produced by So ce 90,[4]; without inhibitor 1.7 mg/L,0.3 mg/L
same,epothilone A produced by So ce 90,[4]; without inhibitor 3.6 mg/L,0.9 mg/L
same,effect on growth of So ce 90,[5],does not detrimentally inhibit the growth
